Results as given in patent US9029559B2, “Substituted 3-heteroaroylamino-propionic acid derivatives and their use as pharmaceuticals” (SANOFI, priority 2011, dated 2015).

Molecular target: Recombinant human cathepsin A (Homo sapiens (Human), UniProt P10619)
Experiment: Cathepsin A inhibitory activity (cleavage of Bodipy FL-labeled bradykinin, microfluidic capillary electrophoresis)
Type: biochemical
Conditions: read-out: Activity (Cathepsin A inhibitory activity, IC50)

Chain of Recombinant human cathepsin A (P10619 29-326): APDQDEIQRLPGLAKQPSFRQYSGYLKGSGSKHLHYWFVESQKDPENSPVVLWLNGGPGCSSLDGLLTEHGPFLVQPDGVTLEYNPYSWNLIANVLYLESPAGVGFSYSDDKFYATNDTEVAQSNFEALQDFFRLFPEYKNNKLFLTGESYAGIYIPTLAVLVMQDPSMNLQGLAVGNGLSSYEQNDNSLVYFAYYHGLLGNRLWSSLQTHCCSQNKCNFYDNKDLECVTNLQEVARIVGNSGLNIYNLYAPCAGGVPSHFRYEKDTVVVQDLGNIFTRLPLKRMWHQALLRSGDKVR
Chain of Recombinant human cathepsin A (P10619 327-480): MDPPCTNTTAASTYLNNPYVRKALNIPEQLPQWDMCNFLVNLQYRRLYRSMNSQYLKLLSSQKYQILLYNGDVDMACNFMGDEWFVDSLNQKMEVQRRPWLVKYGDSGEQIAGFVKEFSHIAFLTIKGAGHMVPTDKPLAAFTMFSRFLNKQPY

IC50	SMILES
10.4 µM	O=C(O)CC(NC(=O)c1cc(-c2ccccc2)nc(N2CCCCC2)n1)c1ccccc1Cl (stereo not shown) [compound 616, 3-(2-Chloro-phenyl)-3-[(6-phenyl-2-piperidin-1-yl-pyrimidine-4-carbonyl)-amino]-propionic acid]
6.27 µM	O=C(O)C[C@H](NC(=O)c1cccc(-c2ccccc2F)n1)c1ccc(C(F)(F)F)cc1 [compound 608]

Same assay, conditions: read-out: Activity (IC50, cathepsin A inhibition)

SMILES	IC50
O=C(O)CC(NC(=O)c1nc(Cl)ccc1Cl)c1ccc(-c2ccccc2)cc1 (stereo not shown) [compound 498]	8.55 µM
COc1ccc(C(=O)N[C@@H](CC(=O)O)c2ccccc2Cl)nc1-c1ccc(C#N)cc1F [compound 494]	11.4 µM
COc1ccccc1-c1cccc(C(=O)NC(CC(=O)O)c2ccccc2Cl)n1 (stereo not shown) [compound 597]	1.45 µM
O=C(O)CC(NC(=O)c1ccc2cnccc2n1)c1ccccc1Cl (stereo not shown) [compound 544]	11.1 µM
O=C(O)CC(NC(=O)c1ncccc1F)c1ccccc1Cl (stereo not shown) [compound 530]	5.27 µM
Cc1cccc(C(=O)NC(CC(=O)O)c2ccccc2Cl)n1 (stereo not shown) [compound 527]	4.96 µM
COc1ccc(C(=O)N[C@@H](CC(=O)O)c2ccccc2Cl)nc1-c1cc(C)ccc1Cl [compound 492]	1.05 µM
CCc1ccnc(C(=O)NC(CC(=O)O)c2ccccc2Cl)c1 (stereo not shown) [compound 532]	10.2 µM

Other lines, results leading:

IC50	SMILES
5.76 µM	C[C@@](CC(=O)O)(NC(=O)c1cccc(-c2ccccc2Cl)n1)c1ccccc1 [compound 581]
10.8 µM	O=C(O)CC(NC(=O)c1ccc2nc[nH]c2n1)c1ccccc1Cl (stereo not shown) [compound 542]
7.65 µM	O=C(O)CC(NC(=O)c1cccc(F)n1)c1ccccc1Cl (stereo not shown) [compound 531]
2.86 µM	COc1ccc(C(=O)N[C@@H](CC(=O)O)c2ccccc2Cl)nc1-c1cccc(C(C)(C)O)c1 [compound 496]
8.67 µM	O=C(O)CC(NC(=O)c1ccc(Oc2ccccc2)nc1)c1ccccc1Cl (stereo not shown) [compound 585]
2.18 µM	O=C(O)C[C@H](NC(=O)c1cccc(-c2ccccc2Cl)n1)c1ccccc1 [compound 567]

Same assay, conditions: read-out: Activity (IC50, cathepsin A inhibitory activity)

SMILES	IC50
COc1ccc(Cl)cc1-c1nc(C(=O)N[C@@H](CC(=O)O)c2ccccc2Cl)ccc1OC [compound 459]	1.15 µM
COc1ccc(C(=O)N[C@@H](CC(=O)O)c2ccccc2F)nc1-c1cccc(-c2ccccc2)c1 [compound 276]	2.16 µM
COc1ccc(C(=O)N[C@@H](CC(=O)O)c2ccc(C)cc2)nc1-c1ccc2ccn(C)c2c1 [compound 251]	8.94 µM
COc1cc(F)ccc1-c1cncc(C(=O)N[C@@H](CC(=O)O)c2ccccc2C)c1 [compound 85]	7.83 µM
COc1ccc(C(=O)N[C@@H](CC(=O)O)c2ccccc2Cl)nc1-c1ccc(C)c(F)c1 [compound 449]	2.02 µM
COc1ccc(C(=O)N[C@@H](CC(=O)O)c2ccccc2Cl)nc1-c1cccnc1 [compound 444]	10.1 µM
Cc1ccccc1[C@H](CC(=O)O)NC(=O)c1cc(N(C)C)nc(N(C)C)n1 [compound 13]	10.1 µM
Cc1ccccc1[C@H](CC(=O)O)NC(=O)c1cncc(-c2ccc(Cl)cc2Cl)c1 [compound 61]	5.14 µM
COc1ccc(C(=O)N[C@@H](CC(=O)O)c2ccccc2Cl)nc1-c1cc(F)cc(F)c1 [compound 439]	2.39 µM
COc1ncc(C(=O)N[C@@H](CC(=O)O)c2ccccc2C)cc1-c1ccc(F)c(Cl)c1 [compound 406]	10 µM
COc1ncc(C(=O)N[C@@H](CC(=O)O)c2ccccc2C)cc1-c1cccc(Cl)c1 [compound 413]	6.24 µM
Cc1ccccc1[C@H](CC(=O)O)NC(=O)c1ccc2nc[nH]c2n1 [compound 34]	5.07 µM
COc1ncc(C(=O)N[C@@H](CC(=O)O)c2ccccc2C)cc1-c1cccc(F)c1 [compound 414]	8.07 µM
Cc1ccccc1[C@H](CC(=O)O)NC(=O)c1cncc(-c2ccc3c(c2)OCO3)c1 [compound 76]	8.04 µM
COc1ccccc1-c1cccc(C(=O)N[C@@H](CC(=O)O)c2ccccc2C)n1 [compound 44]	1.19 µM
COc1ccc(C(=O)N[C@@H](CC(=O)O)c2ccc(C)cc2)nc1-c1ccc(C)o1 [compound 237]	3.54 µM

Other lines, results leading:

IC50	SMILES
9.57 µM	COc1ccc(C(=O)N[C@@H](CC(=O)O)c2ccccc2F)nc1-c1cccc(C#N)c1 [compound 273]
3.39 µM	COc1ccc(C(=O)N[C@@H](CC(=O)O)c2ccc(C)cc2)nc1-c1ccc(C)cc1C [compound 224]
1.83 µM	COc1cc(Cl)ccc1-c1nc(C(=O)N[C@@H](CC(=O)O)c2ccccc2F)ccc1OC [compound 299]
1.08 µM	Cc1ccccc1[C@H](CC(=O)O)NC(=O)c1cc(-c2ccccc2)ccn1 [compound 39]
3.79 µM	COc1ccc(C(=O)N[C@@H](CC(=O)O)c2ccccc2Cl)nc1-c1ccc(F)c(C)c1 [compound 451]
4.95 µM	COc1ccc(C(=O)N[C@@H](CC(=O)O)c2ccccc2Cl)nc1-c1c(C)nn(C)c1C [compound 486]
3.85 µM	COc1ccc(C(=O)N[C@@H](CC(=O)O)c2ccccc2F)nc1-c1cc(F)cc(F)c1 [compound 279]
7.11 µM	COc1ccc(C(=O)N[C@@H](CC(=O)O)c2ccccc2Cl)nc1-c1ccc2ccccc2c1 [compound 427, (S)-3-(2-Chloro-phenyl)-3-[(5-methoxy-6-naphthalen-2-yl-pyridine-2-carbonyl)-amino]-propionic acid]
11.5 µM	COc1ccc(-c2cncc(C(=O)N[C@@H](CC(=O)O)c3ccccc3C)c2)cc1 [compound 57]
4.11 µM	COc1ccc(Cl)cc1-c1nc(C(=O)N[C@@H](CC(=O)O)c2ccccc2F)ccc1OC [compound 300]
3.26 µM	COc1ccc(C(=O)N[C@@H](CC(=O)O)c2ccc(C)cc2)nc1-c1ccc(F)c(C)c1 [compound 225]
1.26 µM	COc1ccc(C(=O)N[C@@H](CC(=O)O)c2ccccc2F)nc1-c1ccc(F)cc1 [compound 257]
1.05 µM	COc1cc(C(=O)N[C@@H](CC(=O)O)c2ccccc2C)nc(OC)n1 [compound 16, (S)-3-[(2,6-Dimethoxy-pyrimidine-4-carbonyl)-amino]-3-o-tolyl-propionic acid]
1.19 µM	COc1ncc(C(=O)N[C@@H](CC(=O)O)c2ccccc2C)cc1-c1ccccc1C [compound 411]
3.09 µM	Cc1ccccc1[C@H](CC(=O)O)NC(=O)c1ccc2cnccc2n1 [compound 17]
1.67 µM	Cc1ccccc1[C@H](CC(=O)O)NC(=O)c1cccc(F)n1 [compound 48]
8.54 µM	COc1ccc(C(=O)N[C@@H](CC(=O)O)c2ccccc2F)nc1-c1cccc(C(C)=O)c1 [compound 275]
8.93 µM	Cc1ccccc1[C@H](CC(=O)O)NC(=O)c1cccc(N2CCCCC2)n1 [compound 54]
5.4 µM	COc1ccc(C(=O)N[C@@H](CC(=O)O)c2ccccc2F)nc1-c1ccc(C#N)s1 [compound 283]
3.08 µM	Cc1cc(F)ccc1-c1cncc(C(=O)N[C@@H](CC(=O)O)c2ccccc2C)c1 [compound 82]

Same assay, conditions: read-out: Activity [μM] (IC50, cathepsin A inhibitory activity)

SMILES	IC50
Cc1ccccc1[C@H](CC(=O)O)NC(=O)c1cccc(-c2cccc(C#N)c2)n1 [compound 145]	7.46 µM
Cc1ccccc1[C@H](CC(=O)O)NC(=O)c1cccc(-c2ccc(Cl)cc2)n1 [compound 136]	4.85 µM
Cc1ccc(-c2cccc(C(=O)N[C@@H](CC(=O)O)c3ccccc3C)n2)cc1 [compound 137]	1.24 µM
COc1ccc(C(=O)N[C@@H](CC(=O)O)c2ccccc2C)nc1-c1cncnc1 [compound 372]	8.88 µM
COc1ccc(C(=O)N[C@@H](CC(=O)O)c2ccccc2C)nc1-c1ccc(C(C)=O)cc1 [compound 361]	9.24 µM
COc1ccc(C(=O)N[C@@H](CC(=O)O)c2ccc(C)cc2)nc1-c1ccc2ccccc2c1 [compound 195]	8.83 µM
COc1ccc(C(=O)N[C@@H](CC(=O)O)c2ccccc2C)nc1-c1ccc(C(C)=O)s1 [compound 364]	9.25 µM
COc1ncc(C(=O)N[C@@H](CC(=O)O)c2ccccc2Cl)cc1-c1ccc(F)cc1 [compound 346]	8.26 µM
COc1ccc(C(=O)N[C@@H](CC(=O)O)c2ccc(C)cc2)nc1-c1cc(F)cc(F)c1 [compound 207]	2.65 µM

Continued, values first:

IC50	SMILES
8.35 µM	COc1ccc(C(=O)N[C@@H](CC(=O)O)c2ccc(C)cc2)nc1-c1cccc(C(C)=O)c1 [compound 203]
5.27 µM	Cc1ccc(-c2cncc(C(=O)N[C@@H](CC(=O)O)c3ccccc3C)c2)c(C)c1 [compound 117]
3.13 µM	COc1ccc(C(=O)N[C@@H](CC(=O)O)c2ccccc2Cl)nc1-c1ccc(C)cc1 [compound 336]
5.24 µM	COc1ccc(C(=O)N[C@@H](CC(=O)O)c2ccccc2Cl)nc1-c1ccc(F)c(Cl)c1 [compound 332]
1.09 µM	Cc1ccccc1[C@H](CC(=O)O)NC(=O)c1cccc(-c2ccccc2C(F)(F)F)n1 [compound 139]
3.74 µM	COc1ccc(C(=O)N[C@@H](CC(=O)O)c2ccccc2Cl)nc1-c1cccc(C(F)(F)F)c1 [compound 329]
3.7 µM	Cc1ccccc1[C@H](CC(=O)O)NC(=O)c1ccnc(-c2cccc(Cl)c2Cl)c1 [compound 123]
1.57 µM	Cc1ccccc1[C@H](CC(=O)O)NC(=O)c1cccc(-c2cccc(Cl)c2)n1 [compound 140]
7.42 µM	COc1ccc(C(=O)N[C@@H](CC(=O)O)c2ccc(C)cc2)nc1-c1ccc(F)c(F)c1 [compound 208]
2.25 µM	COc1ccc(-c2nc(C(=O)N[C@@H](CC(=O)O)c3ccccc3Cl)ccc2OC)cc1 [compound 335]
3.58 µM	COc1ccc(C(=O)N[C@@H](CC(=O)O)c2ccccc2F)nc1-c1ccc(C#N)cc1F [compound 325]
2.92 µM	COc1ccc(F)c(-c2nc(C(=O)N[C@@H](CC(=O)O)c3ccccc3F)ccc2OC)c1 [compound 307]
3.21 µM	Cc1ccccc1[C@H](CC(=O)O)NC(=O)c1cccc(-c2cccc(F)c2C)n1 [compound 172]
2.16 µM	Cc1ccccc1[C@H](CC(=O)O)NC(=O)c1cccc(-c2ccc(C#N)cc2)n1 [compound 146]
1.01 µM	COc1ccc(C(=O)N[C@@H](CC(=O)O)c2ccc(C)cc2)nc1-c1ccc(Cl)cc1Cl [compound 183]
